PubChem BioAssay (NCI)
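Step 1: Grow cells in 96-well plates. Step 2: Expose to compound for 48 hours at 5 concentrations. Step 3: Interpolate endpoints linearly; if unreached, use highest concentration. TGI: total growth inhibition.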

How the values were obtained:
Assay in all cases: growth of human tumour cells (NCI), 48 h
786-0 renal = system: 786-0 renal
A498 renal = system: A498 renal
A549 NSCLC = system: A549 NSCLC
ACHN renal = system: ACHN renal
CAKI-1 renal = system: CAKI-1 renal
CCRF-CEM leukemia = system: CCRF-CEM leukemia
COLO 205 colon = system: COLO 205 colon
DLD-1 colon = system: DLD-1 colon
DMS 114 small cell lung = system: DMS 114 small cell lung
DMS 273 small cell lung = system: DMS 273 small cell lung
EKVX NSCLC = system: EKVX NSCLC
HCC-2998 colon = system: HCC-2998 colon
HCT-116 colon = system: HCT-116 colon
HCT-15 colon = system: HCT-15 colon
HL-60(TB) leukemia = system: HL-60(TB) leukemia
HOP-18 NSCLC = system: HOP-18 NSCLC
HOP-62 NSCLC = system: HOP-62 NSCLC
HOP-92 NSCLC = system: HOP-92 NSCLC
HT29 colon = system: HT29 colon
IGROV1 ovarian = system: IGROV1 ovarian
K-562 leukemia = system: K-562 leukemia
KM12 colon = system: KM12 colon
KM20L2 colon = system: KM20L2 colon
LOX IMVI melanoma = system: LOX IMVI melanoma
LXFL 529 NSCLC = system: LXFL 529 NSCLC
M14 melanoma = system: M14 melanoma
M19-MEL melanoma = system: M19-MEL melanoma
MALME-3M melanoma = system: MALME-3M melanoma
MOLT-4 leukemia = system: MOLT-4 leukemia
NCI-H226 lung = system: NCI-H226 lung
NCI-H23 lung = system: NCI-H23 lung
NCI-H460 lung = system: NCI-H460 lung
OVCAR-3 ovarian = system: OVCAR-3 ovarian
OVCAR-4 ovarian = system: OVCAR-4 ovarian
OVCAR-5 ovarian = system: OVCAR-5 ovarian
OVCAR-8 ovarian = system: OVCAR-8 ovarian
RPMI-8226 leukemia = system: RPMI-8226 leukemia
RXF 393 renal = system: RXF 393 renal
SF-268 CNS = system: SF-268 CNS
SF-295 CNS = system: SF-295 CNS
SF-539 CNS = system: SF-539 CNS
SK-MEL-2 melanoma = system: SK-MEL-2 melanoma
SK-MEL-28 melanoma = system: SK-MEL-28 melanoma
SK-MEL-5 melanoma = system: SK-MEL-5 melanoma
SK-OV-3 ovarian = system: SK-OV-3 ovarian
SN12C renal = system: SN12C renal
SNB-75 CNS = system: SNB-75 CNS
SNB-78 CNS = system: SNB-78 CNS
SR leukemia = system: SR leukemia
SW-620 colon = system: SW-620 colon
TK-10 renal = system: TK-10 renal
U251 CNS = system: U251 CNS
UACC-257 melanoma = system: UACC-257 melanoma
UACC-62 melanoma = system: UACC-62 melanoma
UO-31 renal = system: UO-31 renal
XF 498 CNS = system: XF 498 CNS
SNB-19 CNS = system: SNB-19 CNS
NCI-H522 lung = system: NCI-H522 lung
RXF-631 renal = system: RXF-631 renal

Structure (SMILES): CSc1ccc(/C=C2\CN(C)C/C(=C\c3ccc(SC)cc3)C2=O)cc1
- TGI (786-0 renal): > 100 µM
- TGI (A498 renal): > 100 µM
- TGI (A549 NSCLC): > 100 µM
- TGI (ACHN renal): > 100 µM
- TGI (CAKI-1 renal): > 100 µM
- TGI (CCRF-CEM leukemia): > 100 µM
- TGI (COLO 205 colon): 61.6 µM
- TGI (DLD-1 colon): > 100 µM
- TGI (DMS 114 small cell lung): > 100 µM
- TGI (DMS 273 small cell lung): > 100 µM
- TGI (EKVX NSCLC): > 100 µM
- TGI (HCC-2998 colon): > 100 µM
- TGI (HCT-116 colon): > 100 µM
- TGI (HCT-15 colon): > 100 µM
- TGI (HL-60(TB) leukemia): > 100 µM
- TGI (HOP-18 NSCLC): > 100 µM
- TGI (HOP-62 NSCLC): > 100 µM
- TGI (HOP-92 NSCLC): > 100 µM
- TGI (HT29 colon): 67 µM
- TGI (IGROV1 ovarian): > 100 µM
- TGI (K-562 leukemia): > 100 µM
- TGI (KM12 colon): 44.8 µM
- TGI (KM20L2 colon): > 100 µM
- TGI (LOX IMVI melanoma): 22.6 µM
- TGI (LXFL 529 NSCLC): 35.7 µM
- TGI (M14 melanoma): > 100 µM
- TGI (M19-MEL melanoma): > 100 µM
- TGI (MALME-3M melanoma): > 100 µM
- TGI (MOLT-4 leukemia): > 100 µM
- TGI (NCI-H226 lung): > 100 µM
- TGI (NCI-H23 lung): 34.5 µM
- TGI (NCI-H460 lung): > 100 µM
- TGI (OVCAR-3 ovarian): 56 µM
- TGI (OVCAR-4 ovarian): > 100 µM
- TGI (OVCAR-5 ovarian): > 100 µM
- TGI (OVCAR-8 ovarian): 39.6 µM
- TGI (RPMI-8226 leukemia): > 100 µM
- TGI (RXF 393 renal): > 100 µM
- TGI (SF-268 CNS): > 100 µM
- TGI (SF-295 CNS): > 100 µM
- TGI (SF-539 CNS): 78.9 µM
- TGI (SK-MEL-2 melanoma): > 100 µM
- TGI (SK-MEL-28 melanoma): > 100 µM
- TGI (SK-MEL-5 melanoma): > 100 µM
- TGI (SK-OV-3 ovarian): 88.1 µM
- TGI (SN12C renal): 78.9 µM
- TGI (SNB-75 CNS): 38.2 µM
- TGI (SNB-78 CNS): > 100 µM
- TGI (SR leukemia): 41.4 µM
- TGI (SW-620 colon): > 100 µM
- TGI (TK-10 renal): > 100 µM
- TGI (U251 CNS): 33.1 µM
- TGI (UACC-257 melanoma): > 100 µM
- TGI (UACC-62 melanoma): > 100 µM
- TGI (UO-31 renal): > 100 µM
- TGI (XF 498 CNS): 58 µM

Structure (SMILES): CCOC(=O)C(Sc1ccccc1)c1c(OC)cc(=O)oc1/C=[N+](/[O-])c1ccc(N(C)C)cc1 (stereo not given)
- TGI (786-0 renal): 42.4 µM
- TGI (A498 renal): > 100 µM
- TGI (A549 NSCLC): > 100 µM
- TGI (CAKI-1 renal): 32.1 µM
- TGI (CCRF-CEM leukemia): 15.4 µM
- TGI (COLO 205 colon): 45.4 µM
- TGI (DLD-1 colon): > 100 µM
- TGI (DMS 114 small cell lung): 42.9 µM
- TGI (DMS 273 small cell lung): 29 µM
- TGI (EKVX NSCLC): > 100 µM
- TGI (HCC-2998 colon): 58.7 µM
- TGI (HCT-15 colon): 31.8 µM
- TGI (HOP-18 NSCLC): 61.6 µM
- TGI (HOP-62 NSCLC): > 100 µM
- TGI (HT29 colon): 31.4 µM
- TGI (IGROV1 ovarian): > 100 µM
- TGI (K-562 leukemia): 23.8 µM
- TGI (KM12 colon): 47.4 µM
- TGI (KM20L2 colon): 89.2 µM
- TGI (LOX IMVI melanoma): 26.6 µM
- TGI (LXFL 529 NSCLC): 27.2 µM
- TGI (M14 melanoma): 31.1 µM
- TGI (M19-MEL melanoma): 37.5 µM
- TGI (MALME-3M melanoma): 58.5 µM
- TGI (MOLT-4 leukemia): 37.9 µM
- TGI (NCI-H23 lung): 78.5 µM
- TGI (NCI-H460 lung): 82.5 µM
- TGI (OVCAR-3 ovarian): 26 µM
- TGI (OVCAR-4 ovarian): 51.6 µM
- TGI (OVCAR-5 ovarian): 83.1 µM
- TGI (OVCAR-8 ovarian): 44.2 µM
- TGI (RPMI-8226 leukemia): 48 µM
- TGI (RXF 393 renal): 32.5 µM
- TGI (SF-268 CNS): > 100 µM
- TGI (SF-295 CNS): 67 µM
- TGI (SF-539 CNS): 56.9 µM
- TGI (SK-MEL-2 melanoma): 77.5 µM
- TGI (SK-MEL-28 melanoma): 37 µM
- TGI (SK-MEL-5 melanoma): 44.9 µM
- TGI (SK-OV-3 ovarian): > 100 µM
- TGI (SN12C renal): 32 µM
- TGI (SNB-19 CNS): > 100 µM
- TGI (SNB-75 CNS): 76.4 µM
- TGI (SNB-78 CNS): 78.9 µM
- TGI (SW-620 colon): 32.2 µM
- TGI (TK-10 renal): 89.5 µM
- TGI (U251 CNS): 60.7 µM
- TGI (UACC-257 melanoma): 28.7 µM
- TGI (UACC-62 melanoma): 51.8 µM
- TGI (UO-31 renal): 41.9 µM
- TGI (XF 498 CNS): 27.7 µM

Structure (SMILES): CC1=C(C(=O)Nc2ccccc2C)C(c2ccco2)C(C(=O)Nc2ccccc2C)=C(C)N1C
- TGI (786-0 renal): > 100 µM
- TGI (A549 NSCLC): > 100 µM
- TGI (ACHN renal): > 100 µM
- TGI (CAKI-1 renal): > 100 µM
- TGI (CCRF-CEM leukemia): > 100 µM
- TGI (DLD-1 colon): > 100 µM
- TGI (DMS 114 small cell lung): > 100 µM
- TGI (EKVX NSCLC): > 100 µM
- TGI (HCC-2998 colon): > 100 µM
- TGI (HCT-116 colon): > 100 µM
- TGI (HL-60(TB) leukemia): > 100 µM
- TGI (HOP-18 NSCLC): > 100 µM
- TGI (HOP-62 NSCLC): > 100 µM
- TGI (HOP-92 NSCLC): > 100 µM
- TGI (HT29 colon): > 100 µM
- TGI (IGROV1 ovarian): > 100 µM
- TGI (K-562 leukemia): > 100 µM
- TGI (KM12 colon): > 100 µM
- TGI (LOX IMVI melanoma): > 100 µM
- TGI (LXFL 529 NSCLC): > 100 µM
- TGI (M14 melanoma): > 100 µM
- TGI (M19-MEL melanoma): > 100 µM
- TGI (MALME-3M melanoma): > 100 µM
- TGI (MOLT-4 leukemia): > 100 µM
- TGI (NCI-H226 lung): > 100 µM
- TGI (NCI-H23 lung): > 100 µM
- TGI (NCI-H460 lung): > 100 µM
- TGI (NCI-H522 lung): > 100 µM
- TGI (OVCAR-3 ovarian): > 100 µM
- TGI (OVCAR-4 ovarian): > 100 µM
- TGI (OVCAR-5 ovarian): > 100 µM
- TGI (OVCAR-8 ovarian): > 100 µM
- TGI (RPMI-8226 leukemia): > 100 µM
- TGI (RXF 393 renal): > 100 µM
- TGI (RXF-631 renal): > 100 µM
- TGI (SF-268 CNS): > 100 µM
- TGI (SF-295 CNS): > 100 µM
- TGI (SF-539 CNS): > 100 µM
- TGI (SK-MEL-2 melanoma): > 100 µM
- TGI (SK-MEL-28 melanoma): > 100 µM
- TGI (SK-MEL-5 melanoma): > 100 µM
- TGI (SK-OV-3 ovarian): > 100 µM
- TGI (SN12C renal): > 100 µM
- TGI (SNB-19 CNS): > 100 µM
- TGI (SNB-78 CNS): > 100 µM
- TGI (SR leukemia): > 100 µM
- TGI (SW-620 colon): > 100 µM
- TGI (TK-10 renal): > 100 µM
- TGI (U251 CNS): > 100 µM
- TGI (UACC-257 melanoma): > 100 µM
- TGI (UACC-62 melanoma): > 100 µM
- TGI (UO-31 renal): > 100 µM
- TGI (XF 498 CNS): > 100 µM
